This note sets out measurements from patent US9326968B2, “Composition for enhancing immunity containing compounds represented by chemical formulas 1-8 or sophora flavescens extract as active ingredient” (Korea Research Institute of Bioscience and Biotechnology, priority 2010, dated 2016).

Molecules are shown by their SMILES.

One assay concerns c-Fos. Kind of assay: TLR-3 signal pathway western blot, nuclear extract: c-Fos. It is filed as cell-based, human. The following applies: THP-1 cells, 30 μM, 60 μM, and 100 μM 1 hour prior to 50 μg/ml poly (I:C) for 3 hours; concentration-dependent. The procedure: (§1) First, THP-1 cells were prepared at a density of 1.5×10^6 cells/well and cultured in culture medium RPMI 1640 which lacks FBS for 12 hours. Then, the cells were treated with the compound of Formula 1 at a concentration of 30 μM, 60 μM, and 100 μM 1 hour prior to the poly(I:C) treatment, and then treated with 50 μg/ml of poly (I:C) for 3 hours. After 3 hours of treatment, the cells were placed in a tube and pelleted down by centrifugation to remove cell media, washed with PBS once. Subsequently, the cells were added with NE-PER Nuclear extraction reagents (Thermo scientific) and cell lysis buffer to isolate nuclear extract and total protein extract which were then subject to western blot analysis. For the nuclear extract, the level of NFkB and c-Fos was monitored, and for the total protein extract, the level of MAPKs, IKK isoforms, and IRF3 was measured. […] Furthermore, the phosphorylation of MAPKs, i.e., ERK, JNK, and p-38 which act before AP-1 activation in the pathway was reduced by the compound of Formula 1 in a concentration-dependent manner (FIG. 9e).

Another assay concerns IKK. Kind of assay: TLR-3 signal pathway western blot, total protein: IKK phosphorylation. The following applies: THP-1 cells, 30 μM, 60 μM, and 100 μM 1 hour prior to 50 μg/ml poly (I:C) for 3 hours; concentration-dependent. The class given is cell-based, human. The procedure: as §1
A further assay relates to ERK. Kind of assay: TLR-3 signal pathway western blot, total protein: ERK phosphorylation. The class given is cell-based, human. Particulars: THP-1 cells, 30 μM, 60 μM, and 100 μM 1 hour prior to 50 μg/ml poly (I:C) for 3 hours; concentration-dependent. The procedure:
as §1

Another assay has as its system JNK. Kind of assay: TLR-3 signal pathway western blot, total protein: JNK phosphorylation. It is filed as cell-based, human. Particulars: THP-1 cells, 30 μM, 60 μM, and 100 μM 1 hour prior to 50 μg/ml poly (I:C) for 3 hours; concentration-dependent. The protocol: as §1
The subject of assay [1] is IRF3. Kind of assay: IRF3 activation in THP-1 cells treated with poly (I:C), western blot. The class given is cell-based, human. The following applies: 30 μM and 60 μM for 1 hour, then 50 μg/ml poly (I:C) for 3 hours, compared to poly (I:C) only. The procedure:
First, in order to investigate the effect of the extract in IRF3 activation, THP-1 cells were prepared at a density of 1.5×10^6 cells/well, and treated with the compound of Formula 1 at a concentration of 30 μM and 60 μM for 1 hour and then treated with 50 μg/ml of poly (I:C) for 3 hours. After 3 hours of treatment, the cells were placed in a tube and pelleted down through centrifugation to remove cell media, which was then washed with PBS once and mixed with NE-PER Nuclear extraction reagent (Thermo scientific) and cell lysis buffer to isolate nuclear extract and total protein extract. The isolated extracts were subject to western blot analysis.

The next assay relates to NFkB p65. Kind of assay: TLR-3 signal pathway western blot, nuclear extract: NFkB p65. It is filed as cell-based, human. Particulars: THP-1 cells, 30 μM, 60 μM, and 100 μM 1 hour prior to 50 μg/ml poly (I:C) for 3 hours; concentration-dependent. The procedure:
as §1

The next assay has as its system rotavirus 205-1. Kind of assay: Proliferation of rotavirus 205-1 in TF-104 cells. The class given is cell-based, porcine rotavirus. The following applies: 30 μM.
The next assay deals with TRIF-CFP. Kind of assay: Distribution of TRIF-CFP in transfected THP-1 cells treated with poly (I:C), confocal microscope. It is filed as cell-based, human. The following applies: THP-1 cells transfected with pcDNA3-TRIF-CFP, 30 μM, then 50 μg/ml poly (I:C) for 1 hour. The protocol: In order to monitor the changes in distribution of TRIF-CFP in vivo by the compound of Formula 1, THP-1 cells (1×10^6 cells/well) were transfected with 0.5 μg of pcDNA3-TRIF-CFP plasmid by using Nucleofector kit V (Lonza, Switzerland) and cultured at 37° C. for 2 days. Then, the transfected cells were placed in 8-chamber slide coated with Poly-L-Lysine and treated with the compound of Formula 1 at 30 μM, and treated with 50 μg/ml of poly (I:C) for 1 hour. After removing the supernatant, the cells were washed with PBS three times, and fixed onto the slide by applying 200 μl of 4% paraformaldehyde and slowfade gold antifade reagent. Then the changes in the distribution of TRIF-CFP were monitored under carl zeins LSM 510 META confocal microscope.

Another assay concerns p-38. Kind of assay: TLR-3 signal pathway western blot, total protein: p-38 phosphorylation. The class given is cell-based, human. The following applies: THP-1 cells, 30 μM, 60 μM, and 100 μM 1 hour prior to 50 μg/ml poly (I:C) for 3 hours; concentration-dependent. The protocol:
as §1

Assay [2] concerns rotavirus KJ56-1 (bovine rotavirus, G8P[7]). Kind of assay: Proliferation of rotavirus KJ56-1 in TF-104 cells. The class given is cell-based. Particulars: MOI 0.01, 30 μM, 3 days. The procedure: In order to investigate the inhibitory effects of the above-disclosed compounds represented by Formulas 1 to 8 against proliferation of rotavirus, the following experiment was conducted using the fetal rhesus monkey kidney cell line TF-104. First, TF-104 cells (1×10^5 cells/well) were treated with rotavirus KJ56-1 (bovine rotavirus, […][7]) with multiplicity of infection (MOI) of 0.01 for 1 hour. Then the supernatant was removed from the cell pellet, and the pelleted cells were added to EMEM medium mixed with 1 μg/ml of trypsin and compounds of Formulas 1 to 8 and cultured at 37° C. for 3 days.

Another assay deals with IFN-β. Kind of assay: IFN-β expression in THP-1 cells, Real-time PCR. It is filed as cell-based, human. The following applies: 10 μM, 30 μM, and 60 μM for 6 hours.
Assay [3] concerns IRF3. Kind of assay: IRF3 activity/phosphorylation in THP-1 cells, western blot. It is filed as cell-based, human. Particulars: treated with the compound only.
Method: First, in order to investigate the effects of the extract in activation of IRF3, THP-1 cells were prepared at a density of 1.5×10^6 cells/well and treated with 30 μg/ml of S. flavescens extract, 60 μg/ml of water fraction thereof, or 30 μg/ml of chloroform fraction thereof for 2 hours. After 2 hours of treatment with the extract and fractions thereof, the cells were put into tubes and pelleted down through centrifugation to remove culture media. Then the cell pellet was washed with PBS once and treated with cell lysis buffer to isolate total protein extracts, which were then subjected to western blot analysis. In this analysis, IRF3 protein level was measured.
The subject of the next assay is IkB. Kind of assay: TLR-3 signal pathway western blot, total protein: IkB phosphorylation. It is filed as cell-based, human. The following applies: THP-1 cells, 30 μM, 60 μM, and 100 μM 1 hour prior to 50 μg/ml poly (I:C) for 3 hours; concentration-dependent. The protocol: as §1

Method for IFN-β: After 6 hours of treatment, the cells were placed in tubes and pelleted down through centrifugation to remove cell media, which was then washed with PBS once and RNA was extracted from the washed cells by using RNeasy Mini Elute Cleanup kit. The concentration and purity of RNA extract was measured by using 2100 Bioanalyzer system (Agilent Technologies), and cDNA was synthesized from this RNA extract by using Taqman reverse transcription reagents kit (Applied Biosystems). The expression level of IFN-β was measured by running Real-time PCR using SYBR Green PCR master mix kit (Applied Biosystem).
Subsequently, in order to investigate the effect of compound of Formula 1 in expression of IFN-β which is induced by IRF3 activation, the compound of Formula 1 was added to the cell group at a concentration of 10 μM, 30 μM, and 60 μM for 6 hours and then the expression level of IFNβ was measured.

As to `C=C(C)C(CCC(C)(C)O)Cc1c(O)cc(O)c2c1OC(c1ccc(O)cc1O)CC2=O` (stereo not shown) [Formula 1, 5,7,2′,4′-trihydroxy-8-(5-hydroxy-2-isoprenyl-5-methyl-hexyl-)flavanone], the “transport of c-Fos to nucleus” value in the assay with c-Fos is “reduced”. For the same compound, the “phosphorylation of IKK” value with IKK is given as “reduced”. For the same compound, the “phosphorylation of ERK” value in the assay with ERK is listed as “reduced”. The “phosphorylation of JNK” value with JNK is listed as “reduced”. In the assay with IRF3 [1], the IRF3 activation result is “higher level of IRF3 activation”. In addition, in the assay on NFkB p65, the “transport of NFkB p65 to nucleus” value is “reduced”. Also, in the assay on rotavirus 205-1, the “proliferation of rotavirus 205-1” value is recorded as “significantly inhibited”. In the assay on TRIF-CFP, the “distribution of TRIF-CFP” value is “even distribution of TRIF-CFP in the cytoplasm”. Further, in the assay with p-38, the “phosphorylation of p-38” value was “reduced”. The “proliferation of rotavirus KJ56-1” value in [2] is given as “significantly inhibited”. For the same compound, the IFN-β expression entry in the assay on IFN-β is reported as “concentration-dependent increase”. Further, the IRF3 activity entry in the assay with IRF3 [3] is given as “concentration-dependent increased”. Further, in the assay with IkB, the “phosphorylation of IkB” value was “reduced”.
